Experimental data from patent publication US5474993A, “Lactam inhibitors of cholesterol esterase” (Sterling Winthrop, Inc., priority 1994, dated 1995).

Target: T1, pancreatic cholesterol esterase (PCEH) (Homo sapiens, UniProt P19835)
T1 sequence (P19835 21-753): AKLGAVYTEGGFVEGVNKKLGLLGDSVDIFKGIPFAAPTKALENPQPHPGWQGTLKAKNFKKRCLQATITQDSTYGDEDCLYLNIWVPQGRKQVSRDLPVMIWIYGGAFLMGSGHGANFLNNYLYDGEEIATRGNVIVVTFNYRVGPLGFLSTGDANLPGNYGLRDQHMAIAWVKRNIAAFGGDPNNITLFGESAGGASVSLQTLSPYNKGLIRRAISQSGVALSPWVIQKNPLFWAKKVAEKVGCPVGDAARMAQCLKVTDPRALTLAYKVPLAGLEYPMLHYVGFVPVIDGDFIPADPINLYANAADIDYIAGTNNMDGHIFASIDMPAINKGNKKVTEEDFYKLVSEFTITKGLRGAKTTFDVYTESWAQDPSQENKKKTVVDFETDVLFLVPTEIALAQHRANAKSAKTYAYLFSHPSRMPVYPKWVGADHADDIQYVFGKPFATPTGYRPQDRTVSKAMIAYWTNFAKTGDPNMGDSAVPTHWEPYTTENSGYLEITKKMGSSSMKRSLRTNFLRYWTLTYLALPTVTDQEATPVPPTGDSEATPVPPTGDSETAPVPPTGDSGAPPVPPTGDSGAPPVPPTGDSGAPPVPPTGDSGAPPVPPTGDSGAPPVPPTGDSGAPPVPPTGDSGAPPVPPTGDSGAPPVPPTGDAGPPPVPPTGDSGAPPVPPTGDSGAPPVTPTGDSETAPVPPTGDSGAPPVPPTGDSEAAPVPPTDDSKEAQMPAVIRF
Assay: KM estimation for PNPA substrate
Type: biochemical
Conditions: nonlinear fit to the rate-progress curve
Description: Purified pancreatic cholesterol esterase or ester hydrolase (PCH), shown by SDS-acrylamide and isoelectric focusing electrophoresis to be homogeneous,is used in a fresh solution of 90 mM (PNPA) in methanol.
First an initial screen is conducted as follows: to determine the effect of an inhibitor on the rate of enzyme catalyzed hydrolysis of PNPA, enzyme and inhibitor are first incubated at room temperature for ten minutes. Following incubation, enough PNPA substrate to give a final concentration of 0.225 mM is added. The rate of PNPA hydrolysis is monitored by observing an increase of absorption at 405 nm over the course of ten minutes. On average, the concentration of inhibitor is 1300-fold greater than that of the enzyme inhibitor concentrate. The maximum solubility of PNPA of approximately twice the value of Km, limited the accuracy the KM determination for the PNPA substrate. The estimated KM based on a nonlinear fit to the rate-progress curve is KM ~1 mM. With this estimate the substrate concentration used in the screen was approximately 0.25 KM.

Compound: CC(=O)Oc1ccc([N+](=O)[O-])cc1 [PNPA, p-nitrophenyl acetate]
- estimated KM: ~ 1 mM
